Experimental data as given in patent US4659726A, “Novel 4,5-Bis (4-methoxyphenyl)-2-(pyrrol-2-yl) thiazoles and pharmaceutical composition containing the same” (Kanebo, Ltd., priority 1984, dated 1987).

How the values were obtained:
[1] = tested on: Platelet aggregation (collagen); experiment: Platelet aggregation inhibitory activity, ex vivo after oral administration to guinea pigs, collagen as aggregating agent; format: in vivo, Hartley strain male guinea pigs; conditions: Cavia porcellus, oral, guinea pig, blood collected after 3 hours, 100 μg/ml collagen suspension (50 μl), 50% inhibitory rate, read-out: Platelet aggregation inhibitory activity Collagen ED50
Method: (§1) Hartley strain male guinea pigs (weighing 300-350 g, one group: three animals) were fasted overnight, and to the animals were orally administered a solution or suspension of the test compounds in corn oil-10% arabic gum. […] The citrated blood thus obtained was centrifuged at 1,700 rpm for 10 minutes, and a platelet-rich plasma (PRP) was obtained from the supernatant. After isolating PRP, the remaining blood was further centrifuged at 3,000 rpm for 10 minutes, and a platelet-poor plasma (PPP) was obtained from the supernatant.
(§2) The PRP (450 μl) thus obtained was incubated at 37° C. for 3 minutes, and thereto was added 1.0 mM sodium arachidonate (50 μl) as an aggregating agent, and then the platelet aggregation thereof was measured with Platelet Aggregation Profiler® (Model PAP-3, manufactured by Bio Data Corp.) while using the PPP obtained above as a blank. As a control, as to animals to which no test compound was administered, the platelet aggregation rate was measured likewise.
(§3) The platelet aggregation inhibitory rate was calculated by the following equation. [formula]
Moreover, the above method was repeated except that 100 μg/ml collagen suspension (50 μl) was used as an aggregating agent instead of sodium arachidonate.

in vivo = conditions: mouse, oral, ddy male mice, deaths counted at 10 days, Weil method, read-out: Acute toxicity LD50
Excerpt: ddy male mice (weighing 18-23 g, one group: 5 animals) were fasted overnight, and thereto was orally administered a suspension of the test compounds in 1% arabic gum solution.

[2] = tested on: Platelet aggregation (arachidonate); experiment: Platelet aggregation inhibitory activity, ex vivo after oral administration to guinea pigs, sodium arachidonate as aggregating agent; format: in vivo, Hartley strain male guinea pigs; conditions: Cavia porcellus, oral, guinea pig, blood collected after 3 hours, 1.0 mM sodium arachidonate (50 μl), 50% inhibitory rate, read-out: Platelet aggregation inhibitory activity Arachidonate ED50
Method: as §1, §2, §3

Structure (SMILES) | ED50 [1] [mg/kg] | LD50 at 240 h (in vivo) [mg/kg] | ED50 [2] [mg/kg]
CCOCCn1cccc1-c1nc(-c2ccc(OC)cc2)c(-c2ccc(OC)cc2)s1 [Ex. 38, 4,5-bis(4-methoxyphenyl)-2-[1-(2-ethoxyethyl)pyrrol-2-yl]thiazole] | 0.29 | > 3000 | 0.09
C=COCCn1cccc1-c1nc(-c2ccc(OC)cc2)c(-c2ccc(OC)cc2)s1 [Ex. 39, 4,5-bis(4-methoxyphenyl)-2-[1-(2-vinyloxyethyl)pyrrol-2-yl]thiazole] | 0.49 | > 3000 | 0.33
CCSCCn1cccc1-c1nc(-c2ccc(OC)cc2)c(-c2ccc(OC)cc2)s1 [Ex. 40, 4,5-bis(4-methoxyphenyl)-2-[1-(2-ethylthioethyl)pyrrol-2-yl]thiazole] | 0.51 | > 3000 | 0.41
CCOCCCn1cccc1-c1nc(-c2ccc(OC)cc2)c(-c2ccc(OC)cc2)s1 [Ex. 41, 4,5-bis(4-methoxyphenyl)-2-[1-(3-ethoxypropyl)pyrrol-2-yl]thiazole] | 0.35 | > 3000 | 0.3
